Measurements reported in patent US20210177982A1, “MUCUS-PENETRATING PEPTIDES, DELIVERY VEHICLES AND METHODS OF THERAPY” (DNALite Therapeutics, Inc., priority 2018, published 2021).

Legend:
[1] = 25° C., RP-HPLC, Ac-X-G-A-K-G-A-G-V-G L-amide; cited from earlier work
[2] = system: mucin from porcine stomach; test: Peptide mucin interaction assay (dynamic light scattering); assay type: binding; conditions: peptide conjugated to DSPE-PEG2k-DBCO at 0.08% mol on MVL5/DOPC/Chol base system with DNA; 0.5 mg/mL mucin, sample:mucin 5:2
Protocol: DSPE-PEG2k-DBCO (Avanti Polar Lipids) was hydrated in water and agitated to form a transparent solution. Synthesized peptides with a lysine containing an azide on the N-terminus were conjugated to it. 2.5× moles of the azide peptides were added to the lipid mix and were left to react overnight. 10× moles of sodium azide were added to the reaction to quench it.
Thin film hydration was used to make a lipid base system composed of MVL5/DOPC/Chol (30/60/10% mol). Briefly, the lipids were dissolved in chloroform: methanol (9:1) and mixed. The lipids were then dried using a rotovap and hydrated in a HEPES-glucose buffer (10 mM HEPES, 230 mM Glucose, pH 7.4) for a final concentration of 1 mM. The lipid suspension was extruded through a 200 nm pore size filter for 20 passes using the NanoSizer MINI (T&T Scientific Corporation, Tennessee). An appropriate amount of DNA was added to the lipid base system for a charge ratio of +3 (assuming MVL5 has a charge ratio of +3 at neutral pH) and the solution was mixed thoroughly and let rest for 20 min. DSPE-PEG2k-DBCO conjugated peptides were added to the base system for a final lipid concentration of 0.08% mol. DSPE-SS-PEG2k was added to the base system for a final lipid concentration of 5% mol. The solutions were incubated for 1 h at 60° C.
For each sample, purified 0.5 mg/mL mucin from porcine stomach (Sigma Aldrich) was added to the sample at a sample:mucin volume ratio of 5:2. Dynamic light scattering was used to measure changes in light scattering in the presence of and without mucin for each sample. […] Thus SEQ ID NO. […] Thus SEQ ID NO. […] Thus SEQ ID NO. […] 4 conjugated systems, where peak shifting was not observed in the presence of mucin. Thus SEQ ID NO. […] 5 conjugated systems where peak shifting was not observed in the presence of mucin. Thus SEQ ID NO. […] 6 conjugated systems where peak shifting was not observed in the presence of mucin. Thus SEQ ID NO. […] FIG. 11 show SEQ ID NO. 7 conjugated systems where peak shifting was not observed in the presence of mucin. Thus SEQ ID NO. […] Thus SEQ ID NO. […] Thus SEQ ID NO. […] Thus, SEQ ID NO. […] Thus SEQ ID NO. […] FIG. 16 show SEQ ID NO. […] Thus SEQ ID NO.

| Compound | interaction with mucin (shift in DLS light intensity peak) [2] | further results |
| --- | --- | --- |
| N[C@@H](CS)C(=O)O [Cys] |  | ΔtR(Gly), pH 2, 20 mM H3PO4 [1]: 8.1; ΔtR(Gly), pH 2, 20 mM TFA [1]: 7.6; ΔtR(Gly), pH 5, 10 mM PO4 Buffer [1]: 7.9; ΔtR(Gly), pH 7, 10 mM PO4 Buffer +50 mM NaCl [1]: 9.1; ΔtR(Gly), pH 7, 10 mM PO4 Buffer +50 mM NaClO4 [1]: 8.2; ΔtR(Gly), pH 7, 10 mM PO4 Buffer, No Salt [1]: 8.3 |
| N[C@@H](CO)C(=O)O [Ser] |  | ΔtR(Gly), pH 2, 20 mM H3PO4 [1]: 0.0; ΔtR(Gly), pH 2, 20 mM TFA [1]: 0.0; ΔtR(Gly), pH 5, 10 mM PO4 Buffer [1]: 0.0; ΔtR(Gly), pH 7, 10 mM PO4 Buffer +50 mM NaCl [1]: 1.2; ΔtR(Gly), pH 7, 10 mM PO4 Buffer +50 mM NaClO4 [1]: 30.5; ΔtR(Gly), pH 7, 10 mM PO4 Buffer, No Salt [1]: 0.5 |
| CCCC[C@H](N)C(=O)O [n-Leu, norleucine] |  | ΔtR(Gly), pH 2, 20 mM H3PO4 [1]: 24.6; ΔtR(Gly), pH 2, 20 mM TFA [1]: 24.6; ΔtR(Gly), pH 5, 10 mM PO4 Buffer [1]: 25.6; ΔtR(Gly), pH 7, 10 mM PO4 Buffer +50 mM NaCl [1]: 25.9; ΔtR(Gly), pH 7, 10 mM PO4 Buffer +50 mM NaClO4 [1]: 26.6; ΔtR(Gly), pH 7, 10 mM PO4 Buffer, No Salt [1]: 25.6 |
| CCC[C@H](N)C(=O)O [n-Val, norvaline] |  | ΔtR(Gly), pH 2, 20 mM H3PO4 [1]: 15.4; ΔtR(Gly), pH 2, 20 mM TFA [1]: 15.2; ΔtR(Gly), pH 5, 10 mM PO4 Buffer [1]: 15.9; ΔtR(Gly), pH 7, 10 mM PO4 Buffer +50 mM NaCl [1]: 16.9; ΔtR(Gly), pH 7, 10 mM PO4 Buffer +50 mM NaClO4 [1]: 16.8; ΔtR(Gly), pH 7, 10 mM PO4 Buffer, No Salt [1]: 16.3 |
| ADDLENVNEGMRIH [SEQ ID NO. 21] | found to not be mucin interacting |  |
| DATDRFHGPDAL [SEQ ID NO. 26] | found to be mucin interacting |  |
| DPVDTPNPTRRKPGK [SEQ ID NO. 24] | found to be mucin interacting |  |
| EPDNWSLDFPRR [SEQ ID NO. 8] | found to interact with mucin |  |
| HPGSPFPPEHRP [SEQ ID NO. 12] | found to be interacting with mucin |  |
| KTIEAHPPYYAS [SEQ ID NO. 7] | found not to interact with mucin |  |
| LIIYRDLISH [SEQ ID NO. 36, reference compound] | disappearance of the system peak was observed demonstrating mucin interaction |  |
| LSTAADMQGVVTDGMASGLDKDYLKPDD [SEQ ID NO. 22] | found to not interact with mucin |  |
| MAKPAQGAKY [SEQ ID NO. 2] | found to interact with mucin |  |
| MATKGGTVKA [SEQ ID NO. 1] | found not to interact with mucin |  |
| MSVTGGKMAP [SEQ ID NO. 3] | found to be interacting with mucin |  |
| NIENSTLATPLS [SEQ ID NO. 32] | found to be mucin interacting |  |
| NSGTMQSASRAT [SEQ ID NO. 5] | found not to interact with mucin |  |
| NYTTYKSHFQDR [SEQ ID NO. 9] | found to interact with mucin |  |
| PSSSSSSRIGDP [SEQ ID NO. 23] | found to be mucin interacting |  |
| QAASRVENYMHR [SEQ ID NO. 6] | found not to interact with mucin |  |
| RQSAGVL [SEQ ID NO. 14] | lack of interaction with mucin |  |
| RQSAGVLGFAPTNIDDTSFHA [SEQ ID NO. 16] | found to be mucin interacting |  |
| RQWVGDRA [SEQ ID NO. 17] | found to be mucin interacting |  |
| RWQVGDRADGE [SEQ ID NO. 19] | found to be mucin interacting |  |
| STSTVSTPVPPPVDDTTWLQSAS [SEQ ID NO. 15] | found to be mucus interacting |  |
| TPKTMTQTYDFS [SEQ ID NO. 4] | found not to interact with mucin |  |
| TSHTDAPPARSP [SEQ ID NO. 13] | found to be interacting with mucin |  |
| TSHTDAPPARSP [SEQ ID NO. 34] | found to be mucin interacting |  |
| VGDDSGGFSTTVSTEQNVPDPQV [SEQ ID NO. 20] | not found to be mucin interacting |  |
